Results taken from patent publication US20200331904A1, “3-AMINO-[1,2,4]-TRIAZOLE DERIVATIVES AND THEIR USE FOR CONTROLLING UNDESIRED PLANT GROWTH” (Bayer CropScience Aktiengesellschaft, priority 2017, published 2020).

Legend:
Format in all cases: in vivo
[1] = test system: Viola tricolor; assay: Pre-emergence herbicidal efficacy, VIOTR
Source text: (§1) C.1 Pre-Emergence Herbicidal Action and Crop Plant Compatibility
(§2) Seeds of monocotyledonous and dicotyledonous weed plants and crop plants are placed in plastic or organic planting pots and covered with soil. The compounds of the invention, formulated in the form of wettable powders (WP) or as emulsion concentrates (EC), are then applied onto the surface of the covering soil as aqueous suspension or emulsion with addition of 0.5% additive at a water application rate of […] (converted). After the treatment, the pots are placed in a greenhouse and kept under good growth conditions for the trial plants. After about 3 weeks, the effect of the preparations is scored visually in comparison with untreated controls as percentages. For example, 100% activity=the plants have died, 0% activity=like control plants.
(§3) ABUTH: Abutilon theophrasti ALOMY: Alopecurus myosuroides AMARE: Amaranthus retroflexus AVEFA: Avena fatua CYPES: Cyperus esculentus ECHCG: Echinochloa crus-galli LOLMU: Lolium multiflorum MATIN: Matricaria inodora PHBPU: Ipomoea purpurea POLCO: Polygonum convolvulus SETVI: Setaria viridis STEME: Stellaria media VERPE: Veronica persica VTOTR: Viola tricolor

[2] = test system: Polygonum convolvulus; assay: Pre-emergence herbicidal efficacy, POLCO; conditions: scored visually after about 3 weeks vs untreated controls
Source text: as §1, §2, §3

[3] = test system: Veronica persica; assay: Pre-emergence herbicidal efficacy, VERPE; conditions: scored visually after about 3 weeks vs untreated controls
Source text: as §1, §2, §3

[4] = test system: Amaranthus retroflexus; assay: Pre-emergence herbicidal efficacy, AMARE; conditions: scored visually after about 3 weeks vs untreated controls
Source text: as §1, §2, §3

[5] = test system: Matricaria inodora; assay: Pre-emergence herbicidal efficacy, MATIN
Source text: as §1, §2, §3

[6] = test system: Setaria viridis; assay: Pre-emergence herbicidal efficacy, SETVI; conditions: Table B1, application rate 320 g/ha, scored visually after about 3 weeks vs untreated controls
Source text: as §1, §2, §3

[7] = test system: Abutilon theophrasti; assay: Pre-emergence herbicidal efficacy, ABUTH; conditions: Table B1, application rate 320 g/ha, scored visually after about 3 weeks vs untreated controls
Source text: as §1, §2, §3

[8] = test system: Echinochloa crus-galli; assay: Pre-emergence herbicidal efficacy, ECHCG; conditions: Table B1, application rate 320 g/ha, scored visually after about 3 weeks vs untreated controls
Source text: as §1, §2, §3

[9] = test system: Lolium rigidum; assay: Pre-emergence herbicidal efficacy, LOLRI; conditions: Table B1, application rate 320 g/ha, scored visually after about 3 weeks vs untreated controls
Source text: C.1 Pre-Emergence Herbicidal Action and Crop Plant Compatibility Seeds of monocotyledonous and dicotyledonous weed plants and crop plants are placed in plastic or organic planting pots and covered with soil. The compounds of the invention, formulated in the form of wettable powders (WP) or as emulsion concentrates (EC), are then applied onto the surface of the covering soil as aqueous suspension or emulsion with addition of 0.5% additive at a water application rate of […] (converted). After the treatment, the pots are placed in a greenhouse and kept under good growth conditions for the trial plants. After about 3 weeks, the effect of the preparations is scored visually in comparison with untreated controls as percentages. For example, 100% activity=the plants have died, 0% activity=like control plants. […] Here, for example, compound Nos. I-214 and I-196, when applied pre-emergence, have very good activity (80% to 100% herbicidal activity) against harmful plants such as Abutilon theophrasti, Amaranthus retroflexus, Echinochloa crus-galli, Lolium rigidum, Matricaria inodora, Polygonum convolvulus, Setaria viridis, Stellaria media, Veronica persica and Viola tricolor at an application rate of 0.32 kg of active substance or less per hectare. At the same time, some of the compounds according to the invention leave Gramineae crops such as barley, wheat, rye, millet/sorghum, corn, rice or sugar cane virtually undamaged when applied pre-emergence, even at high active compound dosages. In addition, some substances are also harmless to dicotyledonous crops such as soya, cotton, oilseed rape or sugar beet.

[10] = test system: Stellaria media; assay: Pre-emergence herbicidal efficacy, STEME
Source text: as §1, §2, §3

[11] = Table B1, application rate 320 g/ha, scored visually after about 3 weeks vs untreated controls
[12] = Table B1, application rate 320 g/ha
[13] = application rate 320 g/ha, scored visually after about 3 weeks
[14] = Table B2, application rate 320 g/ha, scored visually after about 3 weeks vs untreated controls
[15] = Table B2, application rate 320 g/ha

| SMILES | Herbicidal efficacy against VIOTR [1, 11] | Herbicidal efficacy against POLCO [2, 12] | Herbicidal efficacy against VERPE [3, 12] | Herbicidal efficacy against AMARE [4, 12] | Herbicidal efficacy against MATIN [5, 11] | Herbicidal efficacy against SETVI [6] | Herbicidal efficacy against ABUTH [7] | Herbicidal efficacy against ECHCG [8] | Herbicidal efficacy against LOLRI [9] | Herbicidal efficacy against STEME [10, 11] | Herbicidal efficacy against VIOTR [1, 13] | Herbicidal efficacy against MATIN [5, 13] | Herbicidal efficacy against STEME [10, 13] | Herbicidal efficacy against VIOTR [1, 14] | Herbicidal efficacy against POLCO [2, 15] | Herbicidal efficacy against VERPE [3, 15] | Herbicidal efficacy against AMARE [4, 15] | Herbicidal efficacy against MATIN [5, 14] | Herbicidal efficacy against STEME [10, 14] |
| --- | --- | --- | --- | --- | --- | --- | --- | --- | --- | --- | --- | --- | --- | --- | --- | --- | --- | --- | --- |
| Cc1ccc2c(c1)C(Nc1nc3n(n1)CCN(C(C)C)C3)C(C)C2 (centres unmarked) [Example I-152] | 100% | 100% | 100% | 100% | 100% | 100% | 100% | 100% | 100% | 100% |  |  |  |  |  |  |  |  |  |
| Cc1ccc2c(c1)[C@H](Nc1nc3n(n1)CCN(C(=O)C1CC1)C3)CCC2 [Example I-182] | 100% | 100% | 100% | 100% | 100% | 100% | 100% | 90% | 100% | 100% |  |  |  |  |  |  |  |  |  |
| Cc1ccc2c(c1)[C@H](Nc1nc3n(n1)CCN(S(C)(=O)=O)C3)CC2 [Example I-196] | 100% | 100% | 100% | 100% | 100% | 100% | 100% | 100% | 100% | 100% |  |  |  |  |  |  |  |  |  |
| Cc1ccc2c(c1)C(Nc1nc3n(n1)CCCC[S+]3[O-])C(C)C2 (centres unmarked) [Example I-371] | 100% | 100% | 100% | 100% | 100% | 100% | 100% | 100% | 100% | 100% |  |  |  |  |  |  |  |  |  |
| Cc1ccc2c(c1)[C@H](Nc1nc3n(n1)CCCS3)[C@@H](C)C2 [Example I-348] | 100% | 100% | 100% | 100% | 100% | 100% | 100% | 100% | 80% | 100% |  |  |  |  |  |  |  |  |  |
| Cc1ccc2c(c1)C(Nc1nc3n(n1)CCC[S+]3[O-])C(C)C2 (centres unmarked) [Example I-360] | 100% | 100% | 100% | 100% | 100% | 100% | 100% | 90% |  | 100% |  |  |  |  |  |  |  |  |  |
| Cc1ccc2c(c1)C(Nc1nc3n(n1)CCCS3(=O)=O)CC2 (centres unmarked) [Example I-238] | 100% | 100% | 100% | 100% | 100% | 100% | 100% | 80% | 90% | 100% |  |  |  |  |  |  |  |  |  |
| CC1CCc2ccccc2C1Nc1nc2n(n1)CCCCS2 (centres unmarked) [Example I-356] | 100% | 100% | 100% | 100% | 100% | 100% |  | 100% | 100% | 100% |  |  |  |  |  |  |  |  |  |
| CC(=O)N1CCCn2nc(NC3CCCc4ccc(C)cc43)nc21 (centres unmarked) [Example I-321] | 100% | 90% | 100% | 100% | 100% |  | 80% |  | 100% | 100% | 100% | 100% | 100% |  |  |  |  |  |  |
| Cc1ccc2c(c1)[C@H](Nc1nc3n(n1)CCCS3)CC2 [Example I-347] | 100% | 100% | 100% | 100% | 100% | 100% | 100% | 100% |  | 100% |  |  |  |  |  |  |  |  |  |
| Cc1ccc2c(c1)[C@H](Nc1nc3n(n1)CCCCS3(=O)=O)CCO2 [Example I-381] | 100% | 100% | 100% | 100% | 100% | 100% | 100% |  | 100% | 100% |  |  |  |  |  |  |  |  |  |
| CN1C(=O)CCn2nc(NC3CCCc4ccccc43)nc21 (centres unmarked) [Example I-278] |  |  |  |  |  |  |  |  |  |  | 90% | 80% | 80% | 100% | 100% | 100% | 100% | 100% | 100% |
| O=S1(=O)CCCCn2nc(NC3CCCc4ccccc43)nc21 (centres unmarked) [Example I-253] |  |  |  |  |  |  |  |  |  |  | 100% | 100% | 100% | 100% | 100% | 100% | 100% | 100% | 100% |
